Assays:
system Xc^− [1] = molecular target: T1, system Xc^− (Homo sapiens, UniProt Q9UPY5); assay: Cystine-induced glutamate release assay; format: cell-based; parameters: endogenous in cells; host or cells: H4 cells; conditions: H4 cells, sodium-free HEPES buffer, 50 μM L-Cystine, 2 hours, Amplex Red glutamate readout; read-out: pIC50 Cystine-induced glutamate release assay (converted)
T1 sequence (Q9UPY5 1-501): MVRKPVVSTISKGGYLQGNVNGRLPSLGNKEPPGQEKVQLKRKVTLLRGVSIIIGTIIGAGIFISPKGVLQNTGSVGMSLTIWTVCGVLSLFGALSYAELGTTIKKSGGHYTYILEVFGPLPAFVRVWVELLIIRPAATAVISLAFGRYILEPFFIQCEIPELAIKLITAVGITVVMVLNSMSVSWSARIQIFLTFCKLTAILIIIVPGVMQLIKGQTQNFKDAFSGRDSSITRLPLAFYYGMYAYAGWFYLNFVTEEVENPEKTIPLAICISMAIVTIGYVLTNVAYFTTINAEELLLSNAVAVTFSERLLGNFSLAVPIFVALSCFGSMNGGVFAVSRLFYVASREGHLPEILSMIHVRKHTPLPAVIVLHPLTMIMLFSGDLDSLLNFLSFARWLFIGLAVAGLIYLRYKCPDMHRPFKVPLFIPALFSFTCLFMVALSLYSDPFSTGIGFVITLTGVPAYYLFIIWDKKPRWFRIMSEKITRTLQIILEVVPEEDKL
T1 sequence (P08195 1-529 partner): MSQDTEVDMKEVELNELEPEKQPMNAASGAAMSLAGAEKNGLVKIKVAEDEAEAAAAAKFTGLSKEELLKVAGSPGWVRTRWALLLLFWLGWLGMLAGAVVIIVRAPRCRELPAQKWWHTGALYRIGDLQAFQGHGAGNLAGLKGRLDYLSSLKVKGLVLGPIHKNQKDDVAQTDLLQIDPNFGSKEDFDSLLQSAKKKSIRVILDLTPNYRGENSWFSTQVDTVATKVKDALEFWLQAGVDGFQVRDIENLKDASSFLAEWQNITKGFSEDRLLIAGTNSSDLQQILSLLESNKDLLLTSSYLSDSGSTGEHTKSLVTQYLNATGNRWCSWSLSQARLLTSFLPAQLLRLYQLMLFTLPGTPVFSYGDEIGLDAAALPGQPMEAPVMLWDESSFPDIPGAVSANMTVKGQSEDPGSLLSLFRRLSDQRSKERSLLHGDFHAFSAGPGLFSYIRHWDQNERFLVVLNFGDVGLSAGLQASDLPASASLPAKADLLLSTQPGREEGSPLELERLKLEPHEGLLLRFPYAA
Method in brief: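 IC50 (reported as pIC50) normalized to DMSO 1% and Erastin 50 μM controls, from Amplex Red fluorescence of glutamate exported into supernatant. H4 cells were washed into sodium-free buffer to exclude EAAT transport, then given compound with 50 μM L-cystine for 2 h in the incubator.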

system Xc^− [2] = molecular target: T1, system Xc^−; assay: [^14C]L-Cystine uptake assay; format: cell-based; parameters: endogenous in cells; host or cells: H4 cells; conditions: H4 cells, sodium-free HEPES buffer, 0.5 μM L-[14C]Cystine and 4.5 μM L-Cystine, 1 hour at 37° C.; read-out: pIC50 [^14C] L-Cystine uptake assay (converted)
Method in brief: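 Compound effect is given as pIC50, taken between controls of 1% DMSO and 50 μM Erastin. Human H4 cells were pretreated 15 min with compound in sodium-free buffer, then took up 0.5 μM [14C]cystine with 4.5 μM cold cystine for 1 hour at 37° C, read by scintillation proximity counting.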

| IC50 (system Xc^− [1]) | IC50 (system Xc^− [2]) | Compound |
| --- | --- | --- |
| 15.8 to 39.8 nM | 15.8 to 39.8 nM | O=C(CN1C(=O)C(CO)c2ncccc2-c2c(F)cc(Cl)cc21)Nc1ccc(Cl)c(F)c1 (single isomer, unassigned) [#382, 2-[9-chloro-11-fluoro-5-(hydroxymethyl)-6-oxo-5H-pyrido[2,3-d][1]benzazepin-7-yl]-N-(4-chloro-3-fluoro-phenyl)acetamide] |
| 39.8 to 100 nM | 15.8 to 39.8 nM | CC1C(=O)N(CC(=O)Nc2ccc(Cl)c(F)c2)c2cc(Cl)cc(F)c2-c2nnccc21 (single isomer, unassigned) [#383, 2-[9-chloro-11-fluoro-5-methyl-6-oxo-5H-pyridazino[4,3-d][1]benzazepin-7-yl]-N-(4-chloro-3-fluoro-phenyl)acetamide] |
| < 15.8 nM | < 15.8 nM | CC1C(=O)N(CC(=O)Nc2ccc(Cl)c(F)c2)c2cc(Cl)cc(F)c2-c2ccnnc21 (single isomer, unassigned) [#384, 2-[9-chloro-11-fluoro-5-methyl-6-oxo-5H-pyridazino[3,4-d][1]benzazepin-7-yl]-N-(4-chloro-3-fluoro-phenyl)acetamide] |
| 15.8 to 39.8 nM | < 15.8 nM | CC1C(=O)N(CC(=O)Nc2ccc(Cl)c(F)c2)c2cc(Cl)cc(F)c2-c2cnncc21 (single isomer, unassigned) [#385, 2-[9-chloro-11-fluoro-5-methyl-6-oxo-5H-pyridazino[4,5-d][1]benzazepin-7-yl]-N-(4-chloro-3-fluoro-phenyl)acetamide] |
| < 15.8 nM | < 15.8 nM | Cc1cc2c(c(Cl)n1)-c1ccnn1C(C)C(=O)N2CC(=O)Nc1ccc(C(F)F)cc1 (single isomer, unassigned) [#386, 2-[14-chloro-7,12-dimethyl-8-oxo-5,6,9,13-tetrazatricyclo[8.4.0.0^2,6]tetradeca-1(14),2,4,10,12-pentaen-9-yl]-N-[4-(difluoromethyl)phenyl]acetamide] |
| 15.8 to 39.8 nM | 15.8 to 39.8 nM | COc1cc2c(c(Cl)n1)-c1ccnn1C(C)C(=O)N2CC(=O)Nc1ccc(Cl)c(F)c1 (single isomer, unassigned) [#387, N-(4-chloro-3-fluoro-phenyl)-2-[14-chloro-12-methoxy-7-methyl-8-oxo-5,6,9,13-tetrazatricyclo[8.4.0.0^2,6]tetradeca-1(10),2,4,11,13-pentaen-9-yl]acetamide] |
| < 15.8 nM | < 15.8 nM | Cc1cc2c(c(Cl)n1)-c1cc(F)nn1C(C)C(=O)N2CC(=O)Nc1ccc(C(F)F)cc1 (single isomer, unassigned) [#389, 2-[14-chloro-4-fluoro-7,12-dimethyl-8-oxo-5,6,9,13-tetrazatricyclo[8.4.0.0^2,6]tetradeca-1(14),2,4,10,12-pentaen-9-yl]-N-[4-(difluoromethyl)phenyl]acetamide] |
| 15.8 to 39.8 nM | 39.8 to 100 nM | CC1C(=O)N(CC(=O)Nc2ccc(Cl)c(F)c2)c2cc(C#N)c(F)cc2-c2cccnc21 (single isomer, unassigned) [#394, N-(4-chloro-3-fluoro-phenyl)-2-[9-cyano-10-fluoro-5-methyl-6-oxo-5H-pyrido[2,3-d][1]benzazepin-7-yl]acetamide] |
| 15.8 to 39.8 nM | 15.8 to 39.8 nM | Cc1cc2c(cn1)-c1ccc(Cl)cc1C(C)C(=O)N2CC(=O)Nc1ccc(C(F)F)cc1 (single isomer, unassigned) [#396, 2-[9-chloro-3,7-dimethyl-6-oxo-7H-pyrido[3,4-a][3]benzazenin-5-yl]-N-[4-(difluoromethyl)phenyl]acetamide] |
| 39.8 to 100 nM | 39.8 to 100 nM | CC1C(=O)N(CC(=O)Nc2ccc(Cl)c(F)c2)c2cc(C(F)(F)F)nc(O)c2-c2ccccc21 (single isomer, unassigned) [#397, N-(4-chloro-3-fluoro-phenyl)-2-[1-hydroxy-7-methyl-6-oxo-3-(trifluoromethyl)-7H-pyrido[3,4-a][3]benzazepin-5-yl]acetamide] |
| 15.8 to 39.8 nM | 39.8 to 100 nM | CC1C(=O)N(CC(=O)Nc2ccc(C(F)F)cc2)c2ccnc(Cl)c2-c2cccnc21 (single isomer, unassigned) [#398, N-[4-(difluoromethyl)phenyl]-2-[3-chloro-10-methyl-9-oxo-4,8,12-triazatricyclo[9.4.0.0^2,7]pentadeca-1(11),2(7),3,5,12,14-hexaen-8-yl]acetamide] |
| < 15.8 nM | < 15.8 nM | Cc1cc2c(c(F)n1)-c1ncccc1C(C)C(=O)N2CC(=O)Nc1ccc(Cl)c(F)c1 (single isomer, unassigned) [#401, N-(4-chloro-3-fluoro-phenyl)-2-[15-fluoro-8,13-dimethyl-9-oxo-3,10,14-triazatricyclo[9.4.0.0^2,7]pentadeca-1(15),2,4,6,11,13-hexaen-10-yl]acetamide] |
| < 15.8 nM | < 15.8 nM | COc1cc2c(c(F)n1)-c1cc(F)cnc1C(C)C(=O)N2CC(=O)Nc1ccc(Cl)c(F)c1 (single isomer, unassigned) [#403, N-(4-chloro-3-fluoro-phenyl)-2-[3,14-difluoro-5-methoxy-10-methyl-9-oxo-4,8,12-triazatricyclo[9.4.0.0^2,7]pentadeca-1(11),2(7),3,5,12,14-hexaen-8-yl]acetamide] |
| 15.8 to 39.8 nM | < 15.8 nM | Cc1cc2c(c(F)n1)-c1cc(F)ccc1C(C)C(=O)N2CC(=O)Nc1ccc(Cl)c(F)c1 (single isomer, unassigned) [#405, N-(4-chloro-3-fluoro-phenyl)-2-[1,10-difluoro-3,7-dimethyl-6-oxo-7H-pyrido[3,4-a][3]benzazepin-5-yl]acetamide] |
| 15.8 to 39.8 nM | 15.8 to 39.8 nM | CC1C(=O)N(CC(=O)Nc2ccc(Cl)c(F)c2)c2cc(F)cc(F)c2-c2cccnc21 (single isomer, unassigned) [#406, N-(4-chloro-3-fluoro-phenyl)-2-[9,11-difluoro-5-methyl-6-oxo-5H-pyrido[2,3-d][1]benzazepin-7-yl]acetamide] |
| 39.8 to 100 nM | 39.8 to 100 nM | Cc1cc2c(cn1)-c1ncccc1C(C)C(=O)N2CC(=O)Nc1ccc(Cl)c(F)c1 (single isomer, unassigned) [#407, N-(4-chloro-3-fluoro-phenyl)-2-[8,13-dimethyl-9-oxo-3,10,14-triazatricyclo[9.4.0.0^2,7]pentadeca-1(15),2,4,6,11,13-hexaen-10-yl]acetamide] |
| 39.8 to 100 nM | 39.8 to 100 nM | Cc1cc2c(c(F)n1)-c1nccnc1C(C)C(=O)N2CC(=O)Nc1ccc(Cl)c(F)c1 (single isomer, unassigned) [#408, N-(4-chloro-3-fluoro-phenyl)-2-[15-fluoro-8,13-dimethyl-9-oxo-3,6,10,14-tetrazatricyclo[9.4.0.0^2,7]pentadeca-1(15),2,4,6,11,13-hexaen-10-yl]acetamide] |
| 15.8 to 39.8 nM | 15.8 to 39.8 nM | CC1C(=O)N(CC(=O)Nc2ccc(Cl)c(F)c2)c2cccc(F)c2-c2cccnc21 (single isomer, unassigned) [#409, N-(4-chloro-3-fluoro-phenyl)-2-[11-fluoro-5-methyl-6-oxo-5H-pyrido[2,3-d][1]benzazepin-7-yl]acetamide] |
| 15.8 to 39.8 nM | 15.8 to 39.8 nM | COc1cc2c(cn1)-c1cc(F)cnc1C(C)C(=O)N2CC(=O)Nc1ccc(Cl)c(F)c1 (single isomer, unassigned) [#410, N-(4-chloro-3-fluoro-phenyl)-2-[14-fluoro-5-methoxy-10-methyl-9-oxo-4,8,12-triazatricyclo[9.4.0.0^2,7]pentadeca-1(15),2(7),3,5,11,13-hexaen-8-yl]acetamide] |
| < 15.8 nM | < 15.8 nM | COc1cc2c(c(Cl)n1)-c1cccnc1C(C)C(=O)N2CC(=O)Nc1ccc(C(F)F)cc1 (single isomer, unassigned) [#411, 2-(3-chloro-5-methoxy-10-methyl-9-oxo-4,8,12-triazatricyclo[9.4.0.0^2,7]pentadeca-1(11),2(7),3,5,12,14-hexaen-8-yl]-N-[4-(difluoromethyl)phenyl)acetamide] |

— patent US20260217708A1, “FUSED BENZAZEPINE DERIVATIVES FOR USE IN THE TREATMENT OF CANCER AND EPILEPSY” (UCB BIOPHARMA SRL, priority 2023, published 2026)
